Assay results as given in publication PMC7321404, “Isolation of Isocoumarins and Flavonoids as α-Glucosidase Inhibitors from Agrimonia pilosa L” (Molecules, 2020).
Where two headings read alike, the source gives them in different places.

Key:
α-glucosidase [1] = target: T1, α-glucosidase (Saccharomyces cerevisiae, UniProt P53341); experiment: AGI kinetic analysis (Lineweaver–Burk plots); format: biochemical
Protocol: Four isocoumarins 1–4 and four flavonoids 5–8 were identified from the APE fraction, and AGI kinetic analyses were performed. During the reaction, α-glucosidase (0.76 unit/mL in 100-mmol phosphate buffer [pH 6.9]) activity was inhibited by the compounds (I) in the presence of the substrate (4-mmol p-nitrophenyl-α-D-glucopyranoside in 100-mmol phosphate buffer [pH 6.9]). The inhibition modes (competitive, uncompetitive, non-competitive, or mixed) of isocoumarins 1–4 and flavonoids 5–8 were examined using nonlinear regression Michaelis–Menten enzyme kinetics. The Lineweaver–Burk plot methods were used to determine kinetic parameters at increasing substrate and compound concentrations, and the parameters were calculated using a nonlinear regression program (Sigma Plot; SPCC Inc., Chicago, IL, USA). The obtained results represent three independent experiments.

α-glucosidase [2] = target: T1, α-glucosidase; conditions: has been reported; cited from earlier work

T1 sequence (P53341 whole entry): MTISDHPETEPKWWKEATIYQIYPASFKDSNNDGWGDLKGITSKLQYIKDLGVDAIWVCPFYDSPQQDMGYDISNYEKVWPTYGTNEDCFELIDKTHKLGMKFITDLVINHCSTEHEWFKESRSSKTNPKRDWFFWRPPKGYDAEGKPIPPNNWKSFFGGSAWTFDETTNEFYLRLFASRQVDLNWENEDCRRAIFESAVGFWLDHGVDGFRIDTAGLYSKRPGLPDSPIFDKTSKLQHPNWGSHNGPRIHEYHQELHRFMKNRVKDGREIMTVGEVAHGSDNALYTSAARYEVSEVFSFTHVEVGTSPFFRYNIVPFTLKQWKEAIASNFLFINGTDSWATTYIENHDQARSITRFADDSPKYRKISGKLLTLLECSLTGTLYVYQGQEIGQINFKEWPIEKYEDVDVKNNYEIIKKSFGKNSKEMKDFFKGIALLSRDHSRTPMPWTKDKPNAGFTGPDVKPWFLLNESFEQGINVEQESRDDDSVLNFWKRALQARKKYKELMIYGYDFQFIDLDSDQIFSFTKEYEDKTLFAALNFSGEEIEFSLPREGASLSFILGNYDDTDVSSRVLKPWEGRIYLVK

## COc1ccc(CCC2Cc3cc(O)cc(O)c3C(=O)O2)cc1 (stereo not drawn) [Compound 1, agrimonolide]
α-glucosidase [1]
  Inhibition Mode: Non-competitive

## O=C1OC(CCc2ccc(O)cc2)Cc2cc(O)cc(O)c21 (stereo not drawn) [Compound 3, desmethylagrimonolide]
α-glucosidase [1]
  Inhibition Mode: Non-competitive

## O=c1c(O)c(-c2ccc(O)c(O)c2)oc2cc(O)cc(O)c12 [Compound 6, quercetin]
α-glucosidase [2]
  Inhibition Mode: competitive
